Reference: PMC8269107, “Lipidation of Temporin-1CEb Derivatives as a Tool for Activity Improvement, Pros and Cons of the Approach” (International Journal of Molecular Sciences, 2021)
In brackets after ≈: the same amount, converted by molar mass. Where a SMILES comes first, the peptide text is derived from it. [ ]: non-standard residue; d: D form. The star is where a group is joined. Lauroyl = CCCCCCCCCCCC(=O)*; Pentanoyl = CCCCC(=O)*; AEEA = NCCOCCOCC(=O)O; βAla = NCCC(=O)O

What was measured:
C.albicans CCM 8186 = experiment: MIC, broth microdilution; format: cell-based, Candida albicans; details: for MIC100: C.albicans CCM 8186, 24 h
From the text: (§1) Escherichia coli (PCM 2057 = ATCC 25922), Staphylococcus aureus (PCM 2054 = ATCC 25923), Staphylococcus epidermidis (PCM 2118 = ATCC 14990), Bacillus subtilis (PCM 2224 = ATCC 9799), Bacillus cereus (PCM 482 = ATCC 10702) and Pseudomonas aeruginosa (PCM 499 = ATCC 10145) were obtained from the Polish Collection of Microorganisms. Fungi strains Candida albicans (CCM 8186 = CNTC 49/64), Candida glabrata (CCM 8270 = ATCC 90030), Candida parapsilosis (CCM 8260 = ATCC 22019) and Candida krusei (CCM 8271 = ATCC 6258) were acquired from the Czech Collection of Microorganisms. S. aureus USA300 (wild type strain), the reference strain of Klebsiella pneumoniae (ATCC 13883) and clinical isolates of Pseudomonas aeruginosa (PA1, PA2) collected from nonrelated patients admitted to the Stefan Zeromski Specialist Municipal Hospital in Krakow (Poland) were kindly provided by the research group of the Department of Microbiology, Faculty of Biochemistry, Biophysics and Biotechnology, Jagiellonian University, Krakow, Poland.
(§2) Luria-Bertani broth (LB) and Sabouraud Dextrose broth (SB) (Biocorp, Poland) were used for cultivation of bacteria and fungi strains, respectively. The antimicrobial activity of the peptides were analyzed through determination of MIC (minimal inhibitory concentration) parameters according to Clinical and Laboratory Standards (CLSI) guidelines developed for aerobic bacteria and yeasts, respectively. Mueller-Hinton broth (MHB) was used as the working medium for all bacterial strains, while in the case of fungi, RPMI-1640 (with L-glutamine, without sodium bicarbonate) growth medium buffered with MOPS (morpholinepropanesulfonic acid) and supplemented with 2% glucose was used. Inoculum was prepared from freshly grown cultures of microorganisms at their exponential phase of growth. […] Plates were then incubated for 24 h at 37 °C in the case of bacteria and at 35 °C in the case of fungi. After that time, absorbance was read at 590 nm with a Perkin Elmer plate reader. Cultures without peptide were treated as positive control, while uninoculated media were defined as negative control. All measurements were run at least in triplicate.

C.krusei CCM 8271 = experiment: MIC, broth microdilution; format: cell-based, Candida krusei; details: C.krusei CCM 8271, 24 h
From the text: as §1, §2

C.parapsilosis CCM 8260 = experiment: MIC, broth microdilution; format: cell-based, Candida parapsilosis; details: C.parapsilosis CCM 8260, 24 h
From the text: as §1, §2

B. subtilis PCM 2224 = experiment: MIC, broth microdilution; format: cell-based, Bacillus subtilis; details: B. subtilis PCM 2224, 24 h
From the text: as §1, §2

B. cereus PCM 482 = experiment: MIC, broth microdilution; format: cell-based, Bacillus cereus; details: B. cereus PCM 482, 24 h
From the text: as §1, §2

keratinocytes (HaCaT) = experiment: Cytotoxicity, MTT assay; format: cell-based, human; details: 24 h
Description: (§3) Human dermal fibroblasts were obtained as previously reported from biopsies of healthy human skin of three donors undergoing a surgery. All procedures were approved by the Ethics Committee of Medicinal University of Gdansk (NKEBN/483/2011 and NKBBN/745/2019-2020). Immortalized human HaCaT keratinocytes (DKFZ Heidelberg, Germany) were obtained commercially.
(§4) Both types of cell lines were grown in Dulbecco′s Modified Eagle′s Medium (DMEM) (Sigma-Aldrich, Germany), containing […] of glucose, […] of L- glutamine, sodium pyruvate and sodium bicarbonate. Additionally, the medium was supplemented with 10% FCS (fetal calf serum, Sigma-Aldrich, Germany), 100 U/mL of penicillin and 100 μg/mL of streptomycin (Sigma-Aldrich, Germany). The cells were grown in standard culture dishes (BD, USA) in a humidified atmosphere with 5% CO2 at […], and the medium was changed every 2 days.
(§5) The fibroblasts and keratinocytes were seeded at density of 5500 cells per well into 96-well plates suspended in a medium supplemented with 10% FCS. After 24 h from seeding, the media were exchanged with serum- and antibiotic-free DMEM and tested peptides, dissolved in sterile water, which were added, yielding a final concentration ranging from 1 to 50 μg/mL. The cells were then incubated for the next 24 h. At the end of the experiment, the cells were treated with 20 μL of MTT (5 mg/mL in PBS). After 3 h of incubation in the presence of MTT dye, the DMEM medium was discarded and replaced with 6 mM HCl in isopropanol. When the purple crystals of formazan were fully solubilized, absorbance at 570 nm was read.

primary fibroblasts = experiment: Cytotoxicity, MTT assay; format: cell-based, human; details: 24 h
Description: as §3, §4, §5

[1] = tested on: S. aureus (PCM 2054) biofilm; experiment: Biofilm inhibition assay (MTT); format: cell-based, Staphylococcus aureus; details: S. aureus biofilm development, 24 h post-inoculation
Description: In the case of bacteria, an overnight culture of S. aureus in Tryptic Soy Broth (TSB) supplemented with 2% glucose (TSB/+G) was used to prepare inoculum for the experiments. Briefly, 5 mL of 24 h culture was centrifuged at 5000× g, washed with sterile PBS and suspended in a fresh 2 × concentrated TSB/+G. In the case of yeasts, the overnight culture of C. albicans in Sabouraud dextrose broth (SB) was used for inoculum preparation. Similar to above, 5 mL of 24 h culture was centrifuged, washed with PBS and then suspended in sterile 2 × concentrated RPMI-1640 medium (with L-glutamine, without sodium bicarbonate) supplemented with 2% glucose (RPMI-1640/+G). In both cases, the cell concentration of the inoculum was about 1 × 10^7 cells per ml.
For the determination of the inhibitory concentration that reduced biofilm development by 50% (BIC50^, expressed in µg/mL), 100 µL inoculum in 2 × concentrated RPMI-1640/+G medium (in the case of C. albicans) or 2 x concentrated TSB/+G broth (in the case of S. aureus) was transferred to each well of 96-well plates containing 100 µL of serially diluted in water tested compounds. The final concentrations of the compounds were the same as those used in MIC determination studies. The 96-well plates were then incubated for 24 h at 37 °C and 35 °C in the case of bacteria and fungi, respectively. Viability of the microorganisms in the presence of the tested compounds was analyzed by means of MTT assay.
The reduction in biofilm viability was analyzed by means of MTT assay. Briefly, 20 μL of MTT solution (5 mg/mL in PBS) was added to prewashed wells with exchanged medium (180 μL of fresh medium) wells containing bacterial/yeast biofilms. Plates were then incubated in the dark for the next 3 h at 37 °C. After that time, the medium was replaced with 6 mM HCl in isopropanol and, when the reduced MTT was fully dissolved, the plates were read at 570 nm. Activity against fully developed 24 h old biofilm was described as biofilm eradication concentration (BEC50 expressed in µg/mL), which corresponded to the concentration of the compound able to reduce 50% of biofilm viability compared with the growth control.

SMILES | MIC100 (C.albicans CCM 8186) | MIC100 (C.krusei CCM 8271) | MIC100 (C.parapsilosis CCM 8260) | MIC100 (B. subtilis PCM 2224) | MIC100 (B. cereus PCM 482) | IC50 (keratinocytes (HaCaT)) | IC50 (primary fibroblasts) | BIC50 [1] | IC50 (keratinocytes (HaCaT); Keratinocytes (HaCaT), MTT) | effect on cell viability (in words) (keratinocytes (HaCaT); keratinocytes, MTT, 1 to 50 µg/mL) | effect on cell viability (in words) (primary fibroblasts; fibroblasts, MTT, 1 to 50 µg/mL) | IC50 (primary fibroblasts; primary Fibroblasts, MTT) | fold improved activity in comparison to the parent DK5 (C.albicans CCM 8186; C. albicans, MIC)
CC[C@H](C)[C@H](NC(=O)COCCOCCNC(=O)[C@H](Cc1c[nH]cn1)NC(=O)CCN)C(=O)N[C@@H](CCCCN)C(=O)N[C@@H](CCCCN)C(=O)N[C@H](C(=O)N[C@@H](CC(C)C)C(=O)N[C@@H](CO)C(=O)N[C@@H](CCCCN)C(=O)N[C@H](C(=O)N[C@@H](CCCCN)C(=O)N[C@@H](CCCCN)C(=O)N[C@@H](CC(C)C)C(=O)N[C@@H](CC(C)C)C(N)=O)[C@@H](C)CC)[C@@H](C)CC [CAR-PEG-DK5] (H-[βAla]H[AEEA]IKKILSKIKKLL-NH2; N-terminus and C-terminus assumed) | 15.6 µg/mL (≈ 8.78 µM) | 3.9 µg/mL (≈ 2.19 µM) | 31.3 µg/mL (≈ 17.6 µM) | 3.9 µg/mL (≈ 2.19 µM) | >50 µg/mL | >50 µg/mL | 35 µg/mL (≈ 19.7 µM) | >50 µg/mL |  |  |  |  | 
CCCCC(=O)N[C@H](C(=O)N[C@@H](CCCCN)C(=O)N[C@@H](CCCCN)C(=O)N[C@H](C(=O)N[C@@H](CC(C)C)C(=O)N[C@@H](CO)C(=O)N[C@@H](CCCCN)C(=O)N[C@H](C(=O)N[C@@H](CCCCN)C(=O)N[C@@H](CCCCN)C(=O)N[C@@H](CC(C)C)C(=O)N[C@@H](CC(C)C)C(N)=O)[C@@H](C)CC)[C@@H](C)CC)[C@@H](C)CC [Compound C5-DK5] (Pentanoyl-IKKILSKIKKLL-NH2) | 6.25 µg/mL (≈ 4.14 µM) | 25 µg/mL (≈ 16.6 µM) | 3.13 µg/mL (≈ 2.08 µM) | 0.78 µg/mL (≈ 0.517 µM) | 12.5 µg/mL (≈ 8.29 µM) |  |  | 6.25 µg/mL | 35 µg/mL (≈ 23.2 µM) | moderately toxic | moderately toxic | 20 µg/mL (≈ 13.3 µM) | 
CCCCCCCCCCCC(=O)N[C@H](C(=O)N[C@@H](CCCCN)C(=O)N[C@@H](CCCCN)C(=O)N[C@H](C(=O)N[C@@H](CC(C)C)C(=O)N[C@@H](CO)C(=O)N[C@@H](CCCCN)C(=O)N[C@H](C(=O)N[C@@H](CCCCN)C(=O)N[C@@H](CCCCN)C(=O)N[C@@H](CC(C)C)C(=O)N[C@@H](CC(C)C)C(N)=O)[C@@H](C)CC)[C@@H](C)CC)[C@@H](C)CC [Compound C12-DK5] (Lauroyl-IKKILSKIKKLL-NH2) | 3.13 µg/mL (≈ 1.95 µM) | 3.13 µg/mL (≈ 1.95 µM) | 3.13 µg/mL (≈ 1.95 µM) | 0.78 µg/mL (≈ 0.486 µM) | 12.5 µg/mL (≈ 7.78 µM) |  |  | 6.25 µg/mL | 1 µg/mL (≈ 0.623 µM) |  |  | 7 µg/mL (≈ 4.36 µM) | about 10 fold
